Measured values taken from US7157430B2, “(Substituted)acyl dipeptidyl inhibitors of the ICE/CED-3 family of cysteine proteases” (Idun Pharmaceuticals, Inc., priority 1998, dated 2007).

Columns and labels:
Format in all cases: biochemical
Conditions in all cases: continuous assay 60 min, reaction initiated by adding enzyme
[1] = target: T1, mICE (Mus musculus, UniProt P29452); test: Dissociation constant Ki and irreversible rate constant k3 for irreversible inhibitors, ICE
T1 sequence (P29452 123-296 limits assumed): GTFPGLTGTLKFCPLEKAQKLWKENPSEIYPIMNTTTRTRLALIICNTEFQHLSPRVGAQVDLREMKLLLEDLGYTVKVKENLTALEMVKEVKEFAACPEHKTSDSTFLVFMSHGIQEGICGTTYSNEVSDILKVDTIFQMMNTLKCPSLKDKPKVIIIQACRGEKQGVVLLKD
T1 sequence (P29452 315-402 limits assumed): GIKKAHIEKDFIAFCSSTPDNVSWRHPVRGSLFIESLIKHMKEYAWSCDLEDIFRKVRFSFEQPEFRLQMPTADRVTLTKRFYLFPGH
Excerpt: (§1) For the irreversible inhibition of a ICE/ced-3 Family Protease enzyme with a competitive irreversible inhibitor; using the model represented by the following formulas: […]
(§2) The product formation at time t may be expressed as:
(§3) [formula] where E, I, EI and E-I denote the active enzyme, inhibitor, non-covalent enzyme-inhibitor complex and covalent enzyme-inhibitor adduct, respectively. The Ki value is the overall dissociation constant of the reversible binding steps, and k3 is the irreversible rate constant. The [S] and Ks values are the substate concentration and dissociation constant of the substrate bound to the enzyme, respectively. [E]^T is the total enzyme concentration.
(§4) The above equations were used to determine the Ki and k3 values of a given inhibitor bound to a ICE/ced-3 family protease. Thus, a continuous assay was run for sixty minutes at various concentrations of the inhibitor and the substrate. The assay was formulated essentially the same as described above for generating the data in Table 1, except that the reaction was initiated by adding the enzyme to the substrate-inhibitor mixture. The Ki and k3 values were obtained by simulating the product AMC formation as a function of time according to Equation 1.
(§5) The reference compound for this assay was Cbz-ValAlaAsp-CH2F and the values are denoted in Table 2 as “Reference”. The Ki values in Table 2 are in micromolar (μM). The k3/Ki values are in moles^−1 seconds^−1 (M^−1s^−1).

[2] = target: MCH-5 (Homo sapiens, UniProt Q14790); test: Dissociation constant Ki and irreversible rate constant k3 for irreversible inhibitors, Mch5
Sequence of MCH-5 (Q14790 217-374 limits assumed, species assumed): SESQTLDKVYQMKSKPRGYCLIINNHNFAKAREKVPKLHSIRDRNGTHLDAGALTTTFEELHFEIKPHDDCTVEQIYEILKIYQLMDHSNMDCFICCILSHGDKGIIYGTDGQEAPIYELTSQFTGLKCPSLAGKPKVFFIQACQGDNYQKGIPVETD
Sequence of MCH-5 (Q14790 385-479 limits assumed, species assumed): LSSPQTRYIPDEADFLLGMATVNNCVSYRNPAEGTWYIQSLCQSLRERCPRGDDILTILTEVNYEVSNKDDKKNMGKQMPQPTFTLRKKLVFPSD
Excerpt: as §1, §2, §3, §4, §5

[3] = target: T2, CPP32 (Homo sapiens, UniProt P42574); test: Dissociation constant Ki and irreversible rate constant k3 for irreversible inhibitors, CPP32
T2 sequence (P42574 29-175 limits assumed): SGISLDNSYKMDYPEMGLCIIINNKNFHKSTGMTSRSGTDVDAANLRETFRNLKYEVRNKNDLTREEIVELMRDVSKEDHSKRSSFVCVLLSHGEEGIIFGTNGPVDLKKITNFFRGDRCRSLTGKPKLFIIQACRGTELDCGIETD
T2 sequence (P42574 176-277 limits assumed): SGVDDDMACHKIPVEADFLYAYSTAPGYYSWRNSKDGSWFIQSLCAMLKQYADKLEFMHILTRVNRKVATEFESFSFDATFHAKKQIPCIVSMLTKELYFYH
Excerpt: as §1, §2, §3, §4, §5

[4] = target: T3, MCH-2 (Homo sapiens, UniProt P55212); test: Dissociation constant Ki and irreversible rate constant k3 for irreversible inhibitors, Mch2
T3 sequence (P55212 24-179 limits assumed): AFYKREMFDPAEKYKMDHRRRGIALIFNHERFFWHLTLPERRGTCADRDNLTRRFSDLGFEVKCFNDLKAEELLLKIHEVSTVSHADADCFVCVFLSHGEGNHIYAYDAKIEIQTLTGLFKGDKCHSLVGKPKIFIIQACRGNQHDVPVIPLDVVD
T3 sequence (P55212 194-293 limits assumed): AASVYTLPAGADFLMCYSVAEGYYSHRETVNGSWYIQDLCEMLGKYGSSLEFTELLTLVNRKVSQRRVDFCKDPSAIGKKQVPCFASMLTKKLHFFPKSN
Excerpt: as §1, §2, §3, §4, §5

| SMILES | Ki [1] [nM] | mICE k3/Ki [1] | Ki [2] [nM] | MCH-5 k3/Ki [2] | CPP32 k3/Ki [3] | Ki [3] [nM] | Ki [4] [nM] | MCH-2 k3/Ki [4] |
| --- | --- | --- | --- | --- | --- | --- | --- | --- |
| CC(C)[C@H](NC(=O)COc1ccc2ccccc2c1)C(=O)NC(CC(=O)O)C(=O)CF (mixture of isomers) [Example 54] | 1090 | 8,280 M^−1s^−1 | 59 | 32,300 M^−1s^−1 | 59,300 M^−1s^−1 | 209 | 57 | 64,400 M^−1s^−1 |
| CC(C)[C@H](NC(=O)CCOc1cccc2ccccc12)C(=O)NC(CC(=O)O)C(=O)CF (mixture of isomers) [Example 55] | 246 | 33,200 M^−1s^−1 | 56 | 20,400 M^−1s^−1 | 41,300 M^−1s^−1 | 186 | 39 | 59,400 M^−1s^−1 |
| CC(C)C[C@H](NC(=O)COc1ccccc1-c1ccccc1)C(=O)NC(CC(=O)O)C(=O)CF (mixture of isomers) [Example 57, (3RS)-3-[N-((2-Phenylphenoxy)Acetyl)Leucinyl]Amino-5-Fluoro-4-Oxopentanoic Acid] | 120 | 37,400 M^−1s^−1 | 66 | 15,900 M^−1s^−1 | 177,000 M^−1s^−1 | 42 | 30 | 91,000 M^−1s^−1 |
| CC(C)C(NC(=O)COc1ccccc1-c1ccccc1)C(=O)NC(CC(=O)O)C(=O)CF (centres unmarked) [Example 56] | 324 | 15,400 M^−1s^−1 | 85 | 12,800 M^−1s^−1 | 105,000 M^−1s^−1 | 138 | 53 | 50,000 M^−1s^−1 |
| CC(C)[C@H](NC(=O)COc1cccc2ccccc12)C(=O)N[C@@H](CC(=O)O)C(=O)COn1nnc2ccccc2c1=O [Example 62, (3S)-3-[N-((1-Naphthyloxy)Acetyl)Valinyl]Amino-5-(1′,2′,3′-Benzotriazin-4′(3H)-on-3′-yloxy)-4-Oxopentanoic Acid] | 253 | 45,400 M^−1s^−1 | 48 | 18,200 M^−1s^−1 | 169,000 M^−1s^−1 | 52 | 42 | 44,000 M^−1s^−1 |

Other lines, results leading:

| Ki [1] [nM] | mICE k3/Ki [1] | Ki [2] [nM] | MCH-5 k3/Ki [2] | CPP32 k3/Ki [3] | Ki [3] [nM] | Ki [4] [nM] | MCH-2 k3/Ki [4] | SMILES |
| --- | --- | --- | --- | --- | --- | --- | --- | --- |
| 373 | 33,500 M^−1s^−1 | 467 | 5,780 M^−1s^−1 | 8,440 M^−1s^−1 | 758 | – | – | O=C(O)CC(NC(=O)[C@@H]1Cc2ccccc2CN1C(=O)COc1cccc2ccccc12)C(=O)CF (mixture of isomers) [Example 60] |
| 53 | 129,000 M^−1s^−1 | 40 | 71,700 M^−1s^−1 | 207,000 M^−1s^−1 | 79 | 38 | 36,800 M^−1s^−1 | CC(C)[C@H](NC(=O)COc1cccc2ccccc12)C(=O)NC(CC(=O)O)C(=O)CF (mixture of isomers) [Example 53, (3RS)-3-[N-((1-Naphthyloxy)Acetyl)Valinyl]Amino-5-Fluoro-4-Oxopentanoic Acid] |
| 184 | 46,300 M^−1s^−1 | 90 | 17,600 M^−1s^−1 | 14,400 M^−1s^−1 | 942 | 71 | 10,100 M^−1s^−1 | O=C(O)CC(NC(=O)[C@@H]1CCCCN1C(=O)COc1cccc2ccccc12)C(=O)CF (some centres unmarked) [Example 59] |
| 148 | 93,200 M^−1s^−1 | 217 | 10,100 M^−1s^−1 | 28,300 M^−1s^−1 | 360 | – | – | O=C(O)CC(NC(=O)[C@@H]1Cc2ccccc2N1C(=O)COc1cccc2ccccc12)C(=O)CF (stereo partly drawn) [Example 61, (2′S,3RS)-3-[N-((1-Naphthyloxy)Acetyl)Indoline-2′-Carbonyl]Amino-5-Fluoro-4-Oxopentanoic Acid] |
